Measurements: patent publication US20240254087A1, “SELECTIVE, PARTIAL, AND ARRESTIN-BIASED 5-HT2A AGONISTS WITH UTILITY IN VARIOUS DISORDERS” (Saint Joseph's University, priority 2021, published 2024)
Entries after “also recorded” stand apart in the source; their conditions may differ. Where two headings read alike, the source gives them in different places.

Experiments:
5-HT2A = 5-HT2A (Homo sapiens, UniProt P28223); assay: cell-based; parameters: expressed in transfected cells; host or cells: HEK293T, transient; details: for Emax: read-out: 5-HT2A β-arrestin Emax (% 5-HT), BRET, mean ± SEM
Sequence of 5-HT2A (P28223 whole entry): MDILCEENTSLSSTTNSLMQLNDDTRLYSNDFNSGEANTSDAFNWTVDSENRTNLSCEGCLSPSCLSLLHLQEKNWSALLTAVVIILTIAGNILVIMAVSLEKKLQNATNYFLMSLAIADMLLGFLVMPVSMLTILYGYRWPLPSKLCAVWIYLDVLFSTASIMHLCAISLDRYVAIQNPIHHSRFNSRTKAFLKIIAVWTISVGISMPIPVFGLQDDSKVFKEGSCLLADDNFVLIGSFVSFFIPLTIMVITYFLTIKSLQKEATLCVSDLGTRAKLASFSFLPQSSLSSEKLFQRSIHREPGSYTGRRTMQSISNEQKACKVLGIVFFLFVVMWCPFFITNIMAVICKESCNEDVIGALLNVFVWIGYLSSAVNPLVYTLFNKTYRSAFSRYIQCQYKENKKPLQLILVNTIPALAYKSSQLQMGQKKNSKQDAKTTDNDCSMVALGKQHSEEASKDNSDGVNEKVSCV

5-HT2C = molecular target: T1, 5-HT2C (Homo sapiens, UniProt P28335); assay: BRET Gq dissociation, 5-HT2C; type: cell-based; parameters: expressed in transfected cells; host or cells: HEK293T, transient; details: for Emax: read-out: 5-HT2C Gq Dissociation (BRET) EMAX ± SEM (%5-HT)
T1 sequence (P28335 33-458): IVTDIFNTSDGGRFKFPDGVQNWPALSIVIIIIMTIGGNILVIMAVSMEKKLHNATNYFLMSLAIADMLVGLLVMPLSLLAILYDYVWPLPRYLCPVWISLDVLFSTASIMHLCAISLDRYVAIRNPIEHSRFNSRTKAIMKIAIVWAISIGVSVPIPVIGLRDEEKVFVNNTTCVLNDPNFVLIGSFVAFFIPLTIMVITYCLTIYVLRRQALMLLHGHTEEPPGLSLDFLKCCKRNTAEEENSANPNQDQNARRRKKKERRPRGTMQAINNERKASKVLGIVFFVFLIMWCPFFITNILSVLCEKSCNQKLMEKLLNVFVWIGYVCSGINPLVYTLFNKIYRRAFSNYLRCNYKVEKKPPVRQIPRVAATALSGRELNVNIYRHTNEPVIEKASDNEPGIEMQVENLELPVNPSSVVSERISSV

5-HT5a = 5-HT5a (Homo sapiens, UniProt P47898); assay: Competitive radioligand binding (NIMH PDSP)
Sequence of 5-HT5a (P47898 whole entry, species assumed): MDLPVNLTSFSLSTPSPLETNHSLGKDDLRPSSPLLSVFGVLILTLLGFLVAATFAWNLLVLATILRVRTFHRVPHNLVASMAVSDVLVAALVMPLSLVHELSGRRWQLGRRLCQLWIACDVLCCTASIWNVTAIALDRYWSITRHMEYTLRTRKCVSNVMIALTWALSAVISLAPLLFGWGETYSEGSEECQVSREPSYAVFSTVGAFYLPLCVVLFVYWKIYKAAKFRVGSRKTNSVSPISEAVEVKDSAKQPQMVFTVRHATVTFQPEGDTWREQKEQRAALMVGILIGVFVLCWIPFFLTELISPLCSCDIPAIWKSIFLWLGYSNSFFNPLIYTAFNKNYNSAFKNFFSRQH

5-HT6 = 5-HT6 (Homo sapiens, UniProt P50406); assay: Competitive radioligand binding (NIMH PDSP)
Sequence of 5-HT6 (P50406 whole entry, species assumed): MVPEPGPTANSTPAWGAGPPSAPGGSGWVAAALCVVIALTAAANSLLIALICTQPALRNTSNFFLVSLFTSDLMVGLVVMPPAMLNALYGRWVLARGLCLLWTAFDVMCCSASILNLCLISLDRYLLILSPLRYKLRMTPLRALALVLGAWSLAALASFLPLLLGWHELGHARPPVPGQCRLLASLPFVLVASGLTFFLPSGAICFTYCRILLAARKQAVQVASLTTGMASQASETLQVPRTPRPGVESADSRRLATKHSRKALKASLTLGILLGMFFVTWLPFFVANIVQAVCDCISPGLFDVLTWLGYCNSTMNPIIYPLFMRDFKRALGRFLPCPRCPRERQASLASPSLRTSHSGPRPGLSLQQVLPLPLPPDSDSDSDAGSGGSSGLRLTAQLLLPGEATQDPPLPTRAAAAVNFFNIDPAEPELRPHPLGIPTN

5-HT7 = 5-HT7 (Homo sapiens, UniProt P34969); assay: Competitive radioligand binding (NIMH PDSP)
Sequence of 5-HT7 (P34969 whole entry, species assumed): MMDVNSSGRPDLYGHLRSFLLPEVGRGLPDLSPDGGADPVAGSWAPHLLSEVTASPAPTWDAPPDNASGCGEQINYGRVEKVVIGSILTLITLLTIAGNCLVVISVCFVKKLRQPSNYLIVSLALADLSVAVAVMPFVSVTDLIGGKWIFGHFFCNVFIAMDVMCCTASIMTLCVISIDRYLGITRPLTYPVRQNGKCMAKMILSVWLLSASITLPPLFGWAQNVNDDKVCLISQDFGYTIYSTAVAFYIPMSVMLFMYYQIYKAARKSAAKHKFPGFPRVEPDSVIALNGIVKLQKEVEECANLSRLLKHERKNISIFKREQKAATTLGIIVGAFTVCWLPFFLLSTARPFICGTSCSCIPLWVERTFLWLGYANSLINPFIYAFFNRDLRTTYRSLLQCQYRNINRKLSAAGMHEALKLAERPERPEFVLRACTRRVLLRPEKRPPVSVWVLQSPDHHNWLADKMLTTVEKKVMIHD

5-HT2B = 5-HT2B (Homo sapiens, UniProt P41595); assay: BRET Gq dissociation, 5-HT2B; type: cell-based; parameters: expressed in transfected cells; host or cells: HEK293T, transient; details: for Emax: read-out: 5-HT2B Gq Dissociation (BRET) EMAX ± SEM (%5-HT)
Sequence of 5-HT2B (P41595 whole entry): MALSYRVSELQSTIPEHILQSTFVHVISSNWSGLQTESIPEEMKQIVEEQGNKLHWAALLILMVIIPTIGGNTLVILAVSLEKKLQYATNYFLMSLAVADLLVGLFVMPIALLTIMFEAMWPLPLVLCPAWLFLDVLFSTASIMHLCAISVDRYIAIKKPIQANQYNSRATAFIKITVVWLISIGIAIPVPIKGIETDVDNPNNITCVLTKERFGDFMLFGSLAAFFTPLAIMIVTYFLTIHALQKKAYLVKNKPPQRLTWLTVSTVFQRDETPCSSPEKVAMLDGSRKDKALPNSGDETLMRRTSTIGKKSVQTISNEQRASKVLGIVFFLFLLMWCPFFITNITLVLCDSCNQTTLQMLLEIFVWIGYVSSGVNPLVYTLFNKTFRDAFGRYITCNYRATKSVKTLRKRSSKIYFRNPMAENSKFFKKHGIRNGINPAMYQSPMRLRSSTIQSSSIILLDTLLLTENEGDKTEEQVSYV

male C57BL/6J mice = assay: Head-twitch response (HTR) in mice; type: in vivo, mouse; details: for ED50: Mus musculus
In short: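 Head twitches in male C57BL/6J mice (6-8 weeks) carrying head-mounted magnets were detected with a magnetometer coil around a 12-cm glass cylinder during the dark phase. Coil signal was low-pass filtered at 2 kHz and digitized at 20 kHz. Counts were analyzed by one-way ANOVA with Dunnett's post hoc test.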

[1] = read-out: HTR ED50 mg/kg (95% CI), SC, except DOI and 25D-NBOMe IP
[2] = read-out: HTR ED50 μmol/kg (95% CI), SC, except DOI and 25D-NBOMe IP
[3] = SC, except DOI and 25D-NBOMe IP

## COc1cc([N+](=O)[O-])c(OC)cc1CCNCc1cccc(C)c1 [25N-NB-3-Me (22), [2-(2,5-dimethoxy-4-nitrophenyl)ethyl][(3-methylphenyl)methyl]amine]
5-HT2A
  Emax: 94.7 ± 4.2%

## COc1cc([N+](=O)[O-])c(OC)cc1CCN [2C-N (1), 2-(2,5-dimethoxy-4-nitrophenyl)ethan-1-amine, reference compound]
5-HT2C
  EC50: 12.6 nM
  Emax: 78.4 ± 2.5%
5-HT5a
  Ki: > 10000 nM
5-HT6
  Ki: 251 nM
5-HT7
  Ki: > 10000 nM
5-HT2A
  Emax: 83.8 ± 2.5%
5-HT2B
  EC50: 74.1 nM
  Emax: 87.7 ± 2.8%

## COc1cc([N+](=O)[O-])c(OC)cc1CCNCc1ccccc1-c1ccccc1 [25N-NBPh (17), ({[1,1′-biphenyl]-2-yl}methyl)[2-(2,5-dimethoxy-4-nitrophenyl)ethyl]amine]
5-HT2C
  EC50: 646 nM
  Emax: 96.9 ± 10%
Male C57BL/6J mice
  Induction of the HTR in mice (in words): lacked a HTR
  Max HTR response during a 30-min assessment (maximum counts ÷ baseline response): 2.1-fold increase
Male C57BL/6J mice; [1]
  ED50: > 100 mg/kg
5-HT2A
  Emax: 109 ± 2.8%
5-HT2B
  EC50: 316 nM
  Emax: 47 ± 5.5%

## COc1cc([N+](=O)[O-])c(OC)cc1CCNCc1cccc(C)c1O [25N-NB-2-OH-3-Me (18), 2-({[2-(2,5-dimethoxy-4-nitrophenyl)ethyl]amino}methyl)-6-methylphenol]
5-HT2C
  EC50: 2.14 nM
  Emax: 45.8 ± 2.4%
5-HT5a
  Ki: 501 nM
5-HT6
  Ki: 209 nM
5-HT7
  Ki: 871 nM
Male C57BL/6J mice
  Induction of the HTR in mice (in words): failed to induce the HTR; also recorded: do not induce the HTR
  Max HTR response during a 30-min assessment (maximum counts ÷ baseline response): 1.0-fold increase
Male C57BL/6J mice; [1]
  ED50: > 10 mg/kg
5-HT2A; BRET
  Difference in Emax (β-arrestin vs Gq): 81%
5-HT2A; BRET, mean ± SEM
  5-HT2A β-arrestin Emax (% 5-HT): 130.7 ± 4.0 % 5-HT
5-HT2A
  Emax: 131%
5-HT2B
  5-HT2B Gq Dissociation (BRET) EMAX ± SEM (%5-HT): No activity
  5-HT2B Gq Dissociation (BRET) pEC50 ± SEM: No activity

## COc1cc([N+](=O)[O-])c(OC)cc1CCNCc1ccccc1[N+](=O)[O-] [25N-NBNO2 (15), [2-(2,5-dimethoxy-4-nitrophenyl)ethyl][(2-nitrophenyl)methyl]amine]
5-HT2C
  EC50: 148 nM
  Emax: 61.3 ± 4.4%
5-HT5a
  Ki: > 10000 nM
5-HT6
  Ki: > 10000 nM
5-HT7
  Ki: > 10000 nM
Male C57BL/6J mice
  Induction of the HTR in mice (in words): lacked a HTR; also recorded: failed to induce a HTR; also recorded: do not induce the HTR
  Max HTR response during a 30-min assessment (maximum counts ÷ baseline response): 1.9-fold increase
Male C57BL/6J mice; [1]
  ED50: > 100 mg/kg
5-HT2B
  5-HT2B Gq Dissociation (BRET) EMAX ± SEM (%5-HT): No activity
  5-HT2B Gq Dissociation (BRET) pEC50 ± SEM: No activity

## COc1cc([N+](=O)[O-])c(OC)cc1CCNCc1ccccc1C(F)(F)F [25N-NBCF3 (14), [2-(2,5-dimethoxy-4-nitrophenyl)ethyl]({[2-(trifluoromethyl)phenyl]methyl}) amine]
5-HT5a
  Ki: > 10000 nM
5-HT6
  Ki: 407 nM
5-HT7
  Ki: > 10000 nM
Male C57BL/6J mice
  Induction of the HTR in mice (in words): lacked a HTR; also recorded: failed to induce a HTR; also recorded: do not induce the HTR
  Max HTR response during a 30-min assessment (maximum counts ÷ baseline response): 2.6-fold increase
Male C57BL/6J mice; [1]
  ED50: > 30 mg/kg

## COc1cc([N+](=O)[O-])c(OC)cc1CCNCc1ccccc1 [25N-NB (2), Benzyl[2-(2,5-dimethoxy-4-nitrophenyl)ethyl]amine]
5-HT2C
  EC50: 8.51 nM
  Emax: 89.4 ± 2.3%
Male C57BL/6J mice
  Max HTR response during a 30-min assessment (maximum counts ÷ baseline response): 9.1-fold increase
Male C57BL/6J mice; [2]
  ED50: 3.53 µmol/kg
Male C57BL/6J mice; [1]
  ED50: 1.25 mg/kg
5-HT2A
  Emax: 115 ± 4.1%
5-HT2B
  EC50: 38 nM
  Emax: 32.6 ± 2.3%

## COc1cc([N+](=O)[O-])c(OC)cc1CCNCc1cccc(F)c1OC [25N-NB-2-MeO-3-F (19), [2-(2,5-dimethoxy-4-nitrophenyl)ethyl][(3-fluoro-2-methoxyphenyl)methyl]amine]
5-HT5a
  Ki: 2880 nM
5-HT6
  Ki: > 10000 nM
5-HT7
  Ki: > 10000 nM
5-HT2A
  Emax: 120 ± 3.3%

## COc1cc([N+](=O)[O-])c(OC)cc1CCNCc1ccccc1OC(F)(F)F [25N-NBOCF3 (12)]
5-HT5a
  5-HT5a pKi affinity (Ki ± SEM): 5.80
5-HT6
  5-HT6 pKi affinity (Ki ± SEM): 6.12
5-HT7
  5-HT7 pKi affinity (Ki ± SEM): <5
Male C57BL/6J mice
  Induction of the HTR in mice (in words): do not induce the HTR
  Max HTR response during a 30-min assessment (maximum counts ÷ baseline response): 3.9-fold increase
Male C57BL/6J mice; [3]
  HTR ED50 μmol/kg (95% CI): 13.5 (6.81-26.8) μmol/kg
  HTR ED50 mg/kg (95% CI): 5.90 (2.97-11.7) mg/kg

## COc1cc([N+](=O)[O-])c(OC)cc1CCNCc1ccccc1I [25N-NBI (10)]
5-HT2C
  EC50: 87.1 nM
  Emax: 71.5 ± 2.2%
5-HT5a
  Ki: > 10000 nM
5-HT6
  Ki: 380 nM
5-HT7
  Ki: > 10000 nM
Male C57BL/6J mice
  Max HTR response during a 30-min assessment (maximum counts ÷ baseline response): 3.0-fold increase
Male C57BL/6J mice; [2]
  ED50: 10.3 µmol/kg
Male C57BL/6J mice; [1]
  ED50: 4.94 mg/kg
5-HT2B
  EC50: 29.5 nM
  Emax: 21.8 ± 2.3%

## COc1cc([N+](=O)[O-])c(OC)cc1CCNCc1cccc2ccccc12 [25N-N-1-Nap (16), [2-(2,5-dimethoxy-4-nitrophenyl)ethyl][(naphthalen-1-yl)methyl]amine]
5-HT2C
  EC50: 18.6 nM
  Emax: 34.1 ± 4.4%
5-HT5a
  Ki: 1100 nM
5-HT6
  Ki: 79.4 nM
5-HT7
  Ki: 186 nM
Male C57BL/6J mice
  Induction of the HTR in mice (in words): failed to induce the HTR
  Max HTR response during a 30-min assessment (maximum counts ÷ baseline response): 1.2-fold increase
Male C57BL/6J mice; [1]
  ED50: > 30 mg/kg
5-HT2A
  Emax: 78.2 ± 1.8%
5-HT2B
  5-HT2B Gq Dissociation (BRET) EMAX ± SEM (%5-HT): No activity
  5-HT2B Gq Dissociation (BRET) pEC50 ± SEM: No activity

## COc1cc([N+](=O)[O-])c(OC)cc1CCNCc1ccccc1OC [25N-NBOMe (4), [2-(2,5-dimethoxy-4-nitrophenyl)ethyl] [(2-methoxyphenyl)methyl]amine]
5-HT2C
  EC50: 0.302 nM
  Emax: 112 ± 2.8%
5-HT5a
  Ki: > 10000 nM
5-HT6
  Ki: 55 nM
5-HT7
  Ki: > 10000 nM
Male C57BL/6J mice
  Max HTR response during a 30-min assessment (maximum counts ÷ baseline response): 15.6-fold increase
Male C57BL/6J mice; [2]
  ED50: 0.29 µmol/kg
Male C57BL/6J mice; [1]
  ED50: 0.11 mg/kg
5-HT2A
  Emax: 136 ± 3.8%
5-HT2B
  EC50: 3.89 nM
  Emax: 61.8 ± 2.3%

## COc1cc([N+](=O)[O-])c(OC)cc1CCNCc1cccc(O)c1 [25N-NB-3-OH (21), 3-({[2-(2,5-dimethoxy-4-nitrophenyl)ethyl]amino}methyl)phenol]
5-HT5a
  Ki: > 10000 nM
5-HT6
  Ki: 69.2 nM
5-HT7
  Ki: > 10000 nM
Male C57BL/6J mice
  Induction of the HTR in mice (in words): inactive in the HTR
  Max HTR response during a 30-min assessment (maximum counts ÷ baseline response): 1.7-fold increase
Male C57BL/6J mice; [1]
  ED50: > 30 mg/kg
Male C57BL/6J mice; listed as 25N—NB-3-HO (21)
  Induction of the HTR in mice (in words): do not induce the HTR
5-HT2A
  Emax: 119 ± 5.2%
